The values that follow are results of earlier work, collected in patent publication US20040241258A1, “Insect repellent for humans and animals” (priority 2003, published 2004).

The conditions of this data set: in vivo.

Take `CCN(CC)C(=O)c1cccc(C)c1` [DEET, N, N-diethyl-meta-toulamide]: the “time remaining in the blood stream after use” value is on record as 30 days.
